Measured values: patent publication US10036741B2, “Systems, models and methods for identifying and evaluating skin-active agents effective for treating an array of skin disorders” (The Procter & Gamble Company, priority 2012, dated 2018)

Tests used:
[1] = test system: unhealthy skin gene expression signature; assay: Connectivity mapping (C-map) query of stored skin instances with the unhealthy skin gene expression signature; type: cell-based, human; settings: text statement on highest-ranked results of Table C
Description: Referring to FIG. 6 and FIG. 7, an exemplary method for querying instances with one or more gene expression signatures will now be described. Broadly, the method comprises querying a data architecture of stored instances (e.g., skin instances) with one or more gene signatures (e.g., an unhealthy skin gene expression signature), and applying a statistical method to determine how strongly the gene expression signature genes match the regulated genes in an instance.
The up-score and down-score have, for example, values between +1 and −1. […] In these embodiments, the gene expression signature comprises the combination of the up list and the down list. […]
The combination of the up-score and down-score is used to calculate an overall connectivity score for each instance, and in embodiments where up- and down-score ranges are set between −1 and +1, the connectivity score ranges from −2 to +2, and represents the strength of match between a query gene expression signature and the instance. The sign of the overall score is determined by whether the instance links positivity or negatively to the signature. […]

dandruff = assay: Effect of ZPT-containing shampoo on the unhealthy skin gene expression signature in dandruff sufferers (Study 2); type: in vivo, human; settings: dandruff subjects, scalp biopsies, three weeks of treatment
Protocol: Hierarchical Cluster Analysis of Dandruff vs. Non-Dandruff (Study 1): Genome-wide transcriptional profiles of the dandruff condition and healthy scalp were assessed using RNA extracted from full thickness scalp biopsies. […] Each row in FIG. 9 represents a single probe set and each column represents the group average of all subjects (not a single microarray experiment).
Effect of zinc pyrithione (ZPT) on the Unhealthy Skin Gene Expression Signature in Dandruff Sufferers (Study 2): We examined the effect of ZPT on the transcriptomic profile in dandruff sufferers during a course of treatment known to resolve the key symptoms of the condition (flake and itch) and substantially restore the scalp skin histology and cell surface biomarker profile to a healthy state. In this study, we were able to replicate our key transcriptomic findings from Study 1 in a second study population. It is notable that using the expression levels of the same 400 probe sets in the unhealthy gene expression signature, which all satisfied the p<0.05 criterion, hierarchical cluster analysis again clearly separated Dandruff from Non-dandruff (see All Dandruff Baseline vs. Non-Dandruff Baseline). […] This underscores the fundamental importance of the gene products associated with this signature to skin homeostasis.

Compound | rank of instances in C-map query (linkage score) [1] | gene expression profile (400 probe sets of unhealthy skin signature), hierarchical cluster analysis (dandruff)
CC1=C(/C=C/C(C)=C/C=C/C(C)=C/C(=O)O)C(C)(C)CCC1 [All-trans retinoic acid] | strongest negative linkage scores | –
NC(=O)c1cccnc1 [Nicotinamide] | strongest negative linkage scores | –
zinc pyrithione [zinc pyriothione] | – | reversal of the unhealthy skin gene expression signature
